Source: patent US7033765B1, “Site-specific drug delivery” (Toronto Research Chemicals, Inc., priority 1997, dated 2006)
Blank lines part the entries; values can stand above or below the compound they belong to.

Assays:
[1] = target: T1, Y401C Na+ channels (mutated rat skeletal muscle sodium channel protein μ1-2) (Rattus norvegicus, UniProt P15390, Y401C); test: Two-electrode voltage-clamp of Y401C Na+ channels expressed in Xenopus oocytes; format: cell-based
T1 construct: expressed in transfected cells; host or cells: Xenopus laevis oocytes (injected)

[2] = target: T2, HH1 Na+ channels (Homo sapiens, UniProt Q14524); test: Two-electrode voltage-clamp of HH1 Na+ channels recorded in oocytes; format: cell-based
T2 construct: expressed in transfected cells; host or cells: Xenopus laevis oocytes (injected)
Description: (§1) Oocytes were removed from adult female Xenopus.laevis frogs (NASCO, Fort Atkinson, Wis.; XENOPUS, Ann Arbor, Mich.) that had been anesthetized by immersion for 10-25 minutes in a 0.25% solution of tricaine (Sigma Chemical Co., St. Louis, Mo.) in tap water. A 5-fold excess of Na^+ channel protein β subunits compared to α subunits minimized the altered gating properties of Na^+ channel proteins in oocytes. Injected oocytes were incubated at 22° C. for 24-48 hr prior to recording.
(§2) For oocyte recordings, whole-cell currents were recorded at room temperature (approximately 23° C.) using a two-electrode voltage-clamp with 3 M KCl in the pipette and a bath solution containing: 96 mM NaCl, 4 mM KCl, 1 mM MgCl2, 1 mM CaCl2 and 10 mM HEPES (pH=7.6). Electrode pipettes were fabricated from 1.2 mm outer diameter thin-walled borosilicate glass (TW120F-6, World Precision Instruments Inc., Sarasota, Fla.) pulled on a Sutter puller (model P-87). Pipette tips were broken to a diameter of approximately 0.1 mm and plugged with agar made with 3 M KCl for a final resistance of 1-4 MΩ. The circuitry of the amplifier compensated for electrode series resistance (Oocyte Clamp OC-725A, Warner Instruments Inc., Hampden, Conn., USA). Leak subtraction was accomplished using a P/8 protocol from a holding potential of −120 mV. Current was filtered at 2 kHz and digitized at 10 kHz using an IBM-compatible computer, a Warner analog-digital interface (model PP-50 Lab 1), and custom acquisition software. In order to minimize difficulties associated with voltage-clamping oocytes expressing large numbers of channel proteins, whole-cell recordings were limited to oocytes expressing less than 5 μAmps of peak current.
(§3) The desired concentrations of local channel protein anesthetic drugs in ND96 were introduced to the bath by perfusion with at least 30 mL (bath volume=0.6 mL). Total bath exchange took less than 3 minutes and the drugs were allowed to equilibrate with the oocytes for a minimum of 6 minutes prior to recording.
(§4) Current-voltage relationships were produced by stepping the membrane potential from −60 to +50 mV by increments of 5 mV from a holding potential of −80 mV. A repetition frequency of 0.2 Hz was used for such voltage families. Steady-state activation curves of whole-cell currents were calculated from the current-voltage relationships by scaling the peak currents by the net driving force (i.e., V−Erev) using the equation g=I/(V−Erev) where Erev=+45 to +60 mV. Steady-state fast-inactivation curves were constructed by normalizing the current recorded in test pulses to −10 mV following 50 msec prepulses to voltages ranging from −100 to −10 mV. A repetition frequency of 0.2 Hz was used for the steady-state inactivation protocol. Recovery from inactivation was assessed using a two-pulse protocol, in which identical depolarizing voltage pulses to −20 mV for 50 msec were applied to oocytes before (conditioning) and after (test) a variable duration repolarization to −80 mV (recovery potential). The peak current evoked by the second (test) depolarization was normalized to the amplitude of the first (conditioning) depolarization and represents the fraction of channel proteins that had recovered from inactivation during the interpulse recovery period.

[3] = target: T3, skeletal muscle (rSkM1) Na+ channels (Rattus norvegicus, UniProt P15390); test: Two-electrode voltage-clamp of skeletal muscle (rSkM1) Na+ channels recorded in oocytes; format: cell-based
T3 construct: expressed in transfected cells; host or cells: Xenopus oocytes (injected)
Description: as §1
For oocyte recordings, whole-cell currents were recorded at room temperature (approximately 23° C.) using a two-electrode voltage-clamp with 3 M KCl in the pipette and a bath solution containing: 96 mM NaCl, 4 mM KCl, 1 mM MgCl2, 1 mM CaCl2 and 10 mM HEPES (pH=7.6). Electrode pipettes were fabricated from 1.2 mm outer diameter thin-walled borosilicate glass (TW120F-6, World Precision Instruments Inc., Sarasota, Fla.) pulled on a Sutter puller (model P-87). Pipette tips were broken to a diameter of approximately 0.1 mm and plugged with agar made with 3 M KCl for a final resistance of 1-4 MΩ. The circuitry of the amplifier compensated for electrode series resistance (Oocyte Clamp OC-725A, Warner Instruments Inc., Hampden, Conn., USA). […]
as §4, with “A repetition frequency of 0.2 Hz was used for such voltage families.” left out, “A repetition frequency of 0.2 Hz was used for the steady-state inactivation protocol.” left out, “The peak current evoked by the second (test) depolarization was normalized to the amplitude of the first (conditioning) depolarization and represents the fraction of channel proteins that had recovered from inactivation during the interpulse recovery period.” left out

[4] = target: T4, native heart Na+ channel proteins (Rattus norvegicus, UniProt P15389); test: Patch-clamp recording of native heart Na+ channels in isolated rat ventricular myocytes; format: cell-based
T4 construct: native heart Na^+ channel proteins in isolated rat ventricular myocytes; endogenous in cells; host or cells: isolated rat ventricular myocytes
Description: Similar recording methods were used with isolated rat ventricular myocytes using the patch-clamp recording technique.
(§5) Preliminary studies have been performed on four prototypes of the drug illustrated in FIG. 3. Studies using these drugs were performed on three distinct types of Na^+ channel proteins: skeletal muscle Na^+ channel proteins expressed in Xenopus sp. oocytes, native heart Na^+ channel proteins in isolated rat ventricular myocytes and mutated skeletal muscle Na^+ channel proteins (i.e., Y401C) in which the naturally occurring tyrosine at position 401 was replaced with cysteine, the residue naturally found in heart. Native heart Na^+ channel proteins and Y401C channel proteins are referred to as “heart-like” Na^+ channel proteins.

[5] = system: Na+ channel proteins; test: Whole-cell Na+ current recordings with site-specific agents (channel type not stated); format: cell-based; conditions: for slow component of recovery from inactivation in modified channels: FIG. 8B
Description: as §2, §3, §4, §5

[6] = system: cardiac Na+ channels; test: DTT and Cd2+ test of C2 anchoring to the pore cysteine; format: cell-based
Description: To determine the role of the cysteine in the pore of cardiac Na^+ channel proteins, effects of C2 on Na^+ channel proteins were examined in the presence of Cd^2+ and dithiothreitol (DTT). […] Thus, it appears that C2 is linked to the Na^+ channel protein via a disulfide bond.
Cd^2+ binds with very high affinity to free sulfhydryls but not disulfide linked sulfhydryls. To determine whether the cysteines are binding to the drug, after washout of the C2 from Na^+ channel proteins channel proteins, Cd^2+ was added. […] Following DTT application, C2 modified channel proteins restore their sensitivity to Cd^2+ and this restoration occurs simultaneous with the reversal of the local anesthetic effects.

[7] = during application of 500 μM C2
[8] = repetitive depolarization to −10 mV at 10 Hz, 30 μM lidocaine
[9] = with 30 μM lidocaine, Y401C channels
[10] = with 30 μM lidocaine, HH1 channels

T3 sequence (P15390 whole entry): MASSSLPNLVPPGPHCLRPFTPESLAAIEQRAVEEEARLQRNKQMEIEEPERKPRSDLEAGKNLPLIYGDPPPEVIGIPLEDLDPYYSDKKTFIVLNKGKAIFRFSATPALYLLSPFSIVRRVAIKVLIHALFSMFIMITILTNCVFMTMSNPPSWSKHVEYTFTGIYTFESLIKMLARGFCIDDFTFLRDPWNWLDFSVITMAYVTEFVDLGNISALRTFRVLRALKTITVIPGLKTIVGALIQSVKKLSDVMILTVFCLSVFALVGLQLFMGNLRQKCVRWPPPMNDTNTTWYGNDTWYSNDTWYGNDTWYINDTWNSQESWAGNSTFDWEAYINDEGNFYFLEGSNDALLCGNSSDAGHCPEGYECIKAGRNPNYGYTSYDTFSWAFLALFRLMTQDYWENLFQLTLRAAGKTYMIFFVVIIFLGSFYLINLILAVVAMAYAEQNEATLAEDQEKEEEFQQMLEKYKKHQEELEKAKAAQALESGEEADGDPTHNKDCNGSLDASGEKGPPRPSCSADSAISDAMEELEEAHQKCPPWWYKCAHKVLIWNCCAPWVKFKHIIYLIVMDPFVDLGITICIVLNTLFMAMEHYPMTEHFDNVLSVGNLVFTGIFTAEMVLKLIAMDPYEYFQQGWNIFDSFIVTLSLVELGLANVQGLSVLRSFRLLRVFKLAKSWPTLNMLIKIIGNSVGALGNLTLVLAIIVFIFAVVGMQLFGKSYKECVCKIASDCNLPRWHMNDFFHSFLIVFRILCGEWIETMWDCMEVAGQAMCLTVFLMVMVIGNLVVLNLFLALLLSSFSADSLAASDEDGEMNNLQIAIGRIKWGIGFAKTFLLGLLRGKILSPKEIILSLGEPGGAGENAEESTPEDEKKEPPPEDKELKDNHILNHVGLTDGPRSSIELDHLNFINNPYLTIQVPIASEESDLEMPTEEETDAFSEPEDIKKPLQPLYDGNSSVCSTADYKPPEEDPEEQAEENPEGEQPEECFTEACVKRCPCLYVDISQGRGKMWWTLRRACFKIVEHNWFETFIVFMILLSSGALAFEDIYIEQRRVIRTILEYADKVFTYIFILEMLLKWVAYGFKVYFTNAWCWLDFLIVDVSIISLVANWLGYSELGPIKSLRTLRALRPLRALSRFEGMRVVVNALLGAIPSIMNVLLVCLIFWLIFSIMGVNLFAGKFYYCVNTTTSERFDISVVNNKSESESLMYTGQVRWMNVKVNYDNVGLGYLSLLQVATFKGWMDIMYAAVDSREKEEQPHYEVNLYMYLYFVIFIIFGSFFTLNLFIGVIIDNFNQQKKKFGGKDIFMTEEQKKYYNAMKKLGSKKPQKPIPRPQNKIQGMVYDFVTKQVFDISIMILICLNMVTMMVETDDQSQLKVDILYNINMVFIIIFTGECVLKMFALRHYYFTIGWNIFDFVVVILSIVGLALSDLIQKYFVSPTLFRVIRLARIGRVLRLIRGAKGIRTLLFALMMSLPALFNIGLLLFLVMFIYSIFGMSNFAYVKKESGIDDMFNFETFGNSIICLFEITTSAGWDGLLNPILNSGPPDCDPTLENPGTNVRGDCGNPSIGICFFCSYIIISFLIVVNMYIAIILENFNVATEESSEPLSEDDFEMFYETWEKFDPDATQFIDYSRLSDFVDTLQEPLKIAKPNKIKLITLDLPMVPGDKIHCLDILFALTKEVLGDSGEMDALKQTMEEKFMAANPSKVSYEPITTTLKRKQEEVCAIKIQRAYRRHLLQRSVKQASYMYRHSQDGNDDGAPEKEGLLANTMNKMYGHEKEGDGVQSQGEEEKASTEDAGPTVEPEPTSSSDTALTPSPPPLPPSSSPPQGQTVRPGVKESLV
T3 sequence (Q00954 19-218 partner): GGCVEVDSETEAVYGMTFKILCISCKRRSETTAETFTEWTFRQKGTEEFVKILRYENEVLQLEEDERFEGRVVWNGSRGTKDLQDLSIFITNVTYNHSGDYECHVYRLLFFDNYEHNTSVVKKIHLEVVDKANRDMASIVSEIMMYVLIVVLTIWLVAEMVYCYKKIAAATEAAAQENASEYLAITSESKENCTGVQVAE
T2 sequence (Q14524 whole entry): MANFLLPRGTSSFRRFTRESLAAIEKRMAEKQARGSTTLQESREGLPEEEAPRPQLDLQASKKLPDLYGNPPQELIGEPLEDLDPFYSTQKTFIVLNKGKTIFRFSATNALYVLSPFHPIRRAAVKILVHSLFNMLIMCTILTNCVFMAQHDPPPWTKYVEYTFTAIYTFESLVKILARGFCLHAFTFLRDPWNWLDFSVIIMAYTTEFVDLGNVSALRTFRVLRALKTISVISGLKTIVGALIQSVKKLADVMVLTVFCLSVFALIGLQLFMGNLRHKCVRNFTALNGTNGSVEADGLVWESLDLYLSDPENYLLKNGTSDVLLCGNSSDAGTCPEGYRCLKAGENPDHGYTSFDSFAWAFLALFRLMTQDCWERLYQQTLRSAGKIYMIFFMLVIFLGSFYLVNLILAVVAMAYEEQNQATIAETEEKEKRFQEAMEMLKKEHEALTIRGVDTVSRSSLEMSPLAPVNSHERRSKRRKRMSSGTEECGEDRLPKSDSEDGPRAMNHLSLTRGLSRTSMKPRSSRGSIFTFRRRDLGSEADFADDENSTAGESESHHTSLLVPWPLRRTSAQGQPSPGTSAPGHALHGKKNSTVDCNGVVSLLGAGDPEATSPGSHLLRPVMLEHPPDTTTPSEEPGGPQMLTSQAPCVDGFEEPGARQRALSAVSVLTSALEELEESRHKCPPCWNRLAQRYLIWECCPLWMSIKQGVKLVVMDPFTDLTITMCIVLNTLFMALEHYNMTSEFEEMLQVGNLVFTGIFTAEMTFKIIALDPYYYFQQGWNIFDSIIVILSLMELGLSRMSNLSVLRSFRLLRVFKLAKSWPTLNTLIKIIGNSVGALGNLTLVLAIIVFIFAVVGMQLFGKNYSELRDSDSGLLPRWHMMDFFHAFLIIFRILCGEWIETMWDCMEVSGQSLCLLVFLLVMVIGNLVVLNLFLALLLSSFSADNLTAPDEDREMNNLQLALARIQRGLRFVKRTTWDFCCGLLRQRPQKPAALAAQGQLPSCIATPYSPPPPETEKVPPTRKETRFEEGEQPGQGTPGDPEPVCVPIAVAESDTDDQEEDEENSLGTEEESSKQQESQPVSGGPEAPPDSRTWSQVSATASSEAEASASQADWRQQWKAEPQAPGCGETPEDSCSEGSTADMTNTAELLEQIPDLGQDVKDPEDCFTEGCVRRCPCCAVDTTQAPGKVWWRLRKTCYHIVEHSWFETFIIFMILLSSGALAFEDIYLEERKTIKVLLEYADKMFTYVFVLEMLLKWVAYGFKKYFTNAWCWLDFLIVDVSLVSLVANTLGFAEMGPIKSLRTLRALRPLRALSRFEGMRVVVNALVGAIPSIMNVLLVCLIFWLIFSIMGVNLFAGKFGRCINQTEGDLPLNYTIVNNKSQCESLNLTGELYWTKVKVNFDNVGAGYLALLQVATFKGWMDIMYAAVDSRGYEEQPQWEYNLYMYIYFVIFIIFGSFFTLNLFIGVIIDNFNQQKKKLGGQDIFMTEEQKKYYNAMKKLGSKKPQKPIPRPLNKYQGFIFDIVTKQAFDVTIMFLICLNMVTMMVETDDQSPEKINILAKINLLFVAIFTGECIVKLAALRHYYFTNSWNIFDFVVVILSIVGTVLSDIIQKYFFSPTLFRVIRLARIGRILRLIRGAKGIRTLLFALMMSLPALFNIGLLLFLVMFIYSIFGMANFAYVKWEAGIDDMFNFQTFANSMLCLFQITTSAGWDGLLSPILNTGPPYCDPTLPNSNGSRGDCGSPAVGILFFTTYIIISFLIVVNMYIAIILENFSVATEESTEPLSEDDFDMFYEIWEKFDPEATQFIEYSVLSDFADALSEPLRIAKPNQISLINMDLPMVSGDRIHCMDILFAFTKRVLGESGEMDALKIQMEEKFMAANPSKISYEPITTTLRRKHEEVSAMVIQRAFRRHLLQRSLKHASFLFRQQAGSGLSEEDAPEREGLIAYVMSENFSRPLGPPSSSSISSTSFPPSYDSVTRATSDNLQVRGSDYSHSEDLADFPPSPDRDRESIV
T1 sequence (P15390 whole entry Y401C): as the sequence (P15390 whole entry) above, with Y401C counted along it
T1 sequence (Q00954 19-218 partner): as the sequence (Q00954 19-218 partner) above

reversibility of effects on washout ([1]; Y401C channels): inability to wash out
time constant for recovery from inactivation ([1]; after C2 application (washout)): 40.4 ms
time constant for recovery from inactivation [1, 7]: 39.0 ms
time constant for recovery from inactivation ([2]; after the application of C2 (washout)): 66 ms
time constant for recovery from inactivation [2, 7]: 45 ms
time constant for recovery from inactivation ([3]; after C2 washout): 13.7 ms
time constant for recovery from inactivation ([3]; in the presence of 500 μM C2): 56.7 ms
reversibility on washout ([3]; skeletal tissue): washed out
reversibility of binding on washout [4]: irreversible
effect of DTT on the irreversible binding after washout ([6]; presence of DTT): totally inhibited
melting point: 112 to 113 °C
Structure (SMILES): CS(=O)(=O)SCCOC(=O)c1ccc(N)cc1 [Formula C2, 4-(4-aminophenyl)-4-oxo-3-oxabutyl methanethiosulfonate]
use-dependence of Na+ channel current inhibition [5]: very little use-dependent block
recovery from inactivation ([5]; 100 μM to 1 mM): slowing
steady-state inactivation curve ([5]; 100 μM to 1 mM): leftward shifts
whole-cell Na+ current ([5]; 100 μM to 1 mM): decreases
whole-cell Na+ current decay following channel activation ([5]; 100 μM to 1 mM): enhanced rates
shift of the sensitivity of the channels to block by lidocaine ([5]; C2 anchoring, FIG. 9): nearly two orders of magnitude
slow component of recovery from inactivation in modified channels [5]: not observed
reversal of the current decrease by DTT ([6]; 10 mM DTT after C2 washout): completely reversed
block of Na+ current by μM Cd2+ after washout of the agent ([6]; Cd2+ added after C2 washout): no longer blocked
change of whole-cell currents ([6]; following C2 washout (FIG. 7A)): decreased

melting point: 85 to 86 °C
Structure (SMILES): CS(=O)(=O)SCCCCCCOC(=O)c1ccc(N)cc1 [Formula C6, 8-(4-aminophenyl)-8-oxo-7-oxaoctyl methanethiosulfonate]
potency relative to C2 [5]: far more potent than C2

melting point: 73 to 74 °C
Structure (SMILES): CS(=O)(=O)SCCCCCCCCCCOC(=O)c1ccc(N)cc1 [Formula C10, 12-(4-aminophenyl)-12-oxo-11-oxadodecyl methanethiosulfonate]

Structure (SMILES): Cc1cccc(C)c1NC(=O)CNCCSS(C)(=O)=O [Formula T2, 1-(2,6-dimethylphenyl)-2,8,8-trioxo-1,4-diaza-7,8-dithianonane]
use-dependence of Na+ channel current inhibition [5]: use-dependent

Structure (SMILES): CCOC(=O)c1ccc(N)cc1 [benzocaine, reference compound]
slow component of recovery from inactivation in modified channels [5]: not observed

Structure (SMILES): CCN(CC)CC(=O)Nc1c(C)cccc1C [lidocaine, reference compound]
use-dependent block [1, 8]: use-dependent block
tfast, first rapid phase of recovery from inactivation [1, 9]: 5.0 ms
tslow, second slow component of recovery from inactivation [1, 9]: 365 ms
use-dependent block [2, 8]: use-dependent block
tfast, first rapid phase of recovery from inactivation [2, 10]: 16.11 ms
tslow, second slow component of recovery from inactivation [2, 10]: 763 ms
